Experimental data published in ChEMBL document CHEMBL1146079, “Inhibition of human acetyl- and butyrylcholinesterase by novel carbamates of (-)- and (+)-tetrahydrofurobenzofuran and methanobenzodioxepine” (J Med Chem, 2006).

What was measured:
Acetylcholinesterase = Acetylcholinesterase (Homo sapiens, UniProt P22303)
Description: Anticholinesterase activity against human erythrocyte AChE

Cholinesterase = Cholinesterase (Homo sapiens, UniProt P06276)
Sequence of Cholinesterase (P06276 whole entry): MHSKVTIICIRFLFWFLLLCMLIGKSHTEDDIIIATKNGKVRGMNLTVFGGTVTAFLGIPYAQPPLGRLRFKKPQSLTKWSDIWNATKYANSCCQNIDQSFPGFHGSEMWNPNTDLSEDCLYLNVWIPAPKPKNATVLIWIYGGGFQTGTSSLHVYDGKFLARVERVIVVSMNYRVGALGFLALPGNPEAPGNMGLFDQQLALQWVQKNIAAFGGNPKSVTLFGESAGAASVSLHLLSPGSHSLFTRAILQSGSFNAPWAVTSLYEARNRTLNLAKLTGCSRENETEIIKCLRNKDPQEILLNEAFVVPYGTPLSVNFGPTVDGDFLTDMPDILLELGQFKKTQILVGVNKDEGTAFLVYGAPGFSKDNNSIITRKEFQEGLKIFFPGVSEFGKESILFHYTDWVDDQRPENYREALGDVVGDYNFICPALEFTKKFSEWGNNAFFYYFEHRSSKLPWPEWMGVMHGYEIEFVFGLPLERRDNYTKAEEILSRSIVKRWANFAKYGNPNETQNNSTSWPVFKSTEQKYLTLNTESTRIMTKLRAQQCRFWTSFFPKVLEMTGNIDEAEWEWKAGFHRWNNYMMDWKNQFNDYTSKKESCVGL
Description: Anticholinesterase activity against human plasma BChE

Sequence of Acetylcholinesterase (P22303 whole entry): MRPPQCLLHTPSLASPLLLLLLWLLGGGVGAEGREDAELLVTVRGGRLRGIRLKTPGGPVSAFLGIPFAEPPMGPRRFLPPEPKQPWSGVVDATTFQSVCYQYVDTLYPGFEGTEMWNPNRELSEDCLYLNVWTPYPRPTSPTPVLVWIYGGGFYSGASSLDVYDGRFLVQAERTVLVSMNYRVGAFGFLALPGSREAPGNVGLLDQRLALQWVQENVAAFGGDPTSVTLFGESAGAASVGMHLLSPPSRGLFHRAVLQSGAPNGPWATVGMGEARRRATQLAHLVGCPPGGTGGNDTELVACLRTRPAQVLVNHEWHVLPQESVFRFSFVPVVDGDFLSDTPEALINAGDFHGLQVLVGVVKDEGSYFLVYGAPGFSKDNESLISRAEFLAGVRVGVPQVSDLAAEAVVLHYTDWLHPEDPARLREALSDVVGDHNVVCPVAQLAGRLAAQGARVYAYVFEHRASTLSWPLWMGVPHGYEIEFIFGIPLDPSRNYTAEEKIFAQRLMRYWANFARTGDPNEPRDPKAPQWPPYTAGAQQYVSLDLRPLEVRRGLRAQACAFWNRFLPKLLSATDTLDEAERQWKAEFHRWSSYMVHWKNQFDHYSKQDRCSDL

**Q.** Which IC50 (Acetylcholinesterase) does the source give for CCNC(=O)Oc1ccc2c(c1)[C@]1(C)CCO[C@@H]1O2 here?
**A.** The IC50 was 100 nM.

**Q.** And the IC50 (Cholinesterase)?
**A.** Its IC50 is 3 nM.

**Q.** Which results are given for CNC(=O)Oc1ccc2c(c1)[C@@]1(C)CCO[C@H]1N2C?
**A.** IC50 (Acetylcholinesterase): 56 nM; IC50 (Cholinesterase): 56 nM

**Q.** How did the IC50 (Acetylcholinesterase) turn out when CCNC(=O)Oc1ccc2c(c1)[C@]1(C)CCO[C@@H]1N2C was run?
**A.** The IC50 was 82 nM.

**Q.** What about the IC50 (Cholinesterase) of the same molecule?
**A.** The IC50 was 2 nM.

**Q.** Which IC50 (Acetylcholinesterase) does the source give for Cc1ccccc1NC(=O)Oc1ccc2c(c1)[C@]1(C)CO[C@@H](C1)O2 here?
**A.** Its IC50 is 97 nM.

**Q.** For Cc1ccccc1NC(=O)Oc1ccc2c(c1)[C@@]1(C)CCN(C)[C@H]1N2C, which IC50 (Acetylcholinesterase) is on record?
**A.** Its IC50 is 5510 nM.

**Q.** Which IC50 (Acetylcholinesterase) does the source give for CCNC(=O)Oc1ccc2c(c1)[C@]1(C)CCN(C)[C@@H]1N2C here?
**A.** The IC50 was 94 nM.

**Q.** What about the IC50 (Cholinesterase) of the same molecule?
**A.** The IC50 was 4 nM.

**Q.** For CNC(=O)Oc1ccc2c(c1)[C@]1(C)CCO[C@@H]1N2C, which IC50 (Cholinesterase) is on record?
**A.** Its IC50 is 4 nM.

**Q.** With CC(C)c1ccc(NC(=O)Oc2ccc3c(c2)[C@@]2(C)CO[C@H](C2)O3)cc1 as the molecule, how does the IC50 (Cholinesterase) read?
**A.** The IC50 was 15 nM.

**Q.** What does the source list for CCNC(=O)Oc1ccc2c(c1)[C@@]1(C)CO[C@H](C1)O2?
**A.** IC50 (Acetylcholinesterase): 610 nM; IC50 (Cholinesterase): 23 nM

**Q.** Which IC50 (Acetylcholinesterase) does the source give for CCNC(=O)Oc1ccc2c(c1)[C@@]1(C)CCO[C@H]1O2 here?
**A.** Its IC50 is 486 nM.

**Q.** And the IC50 (Cholinesterase)?
**A.** The IC50 was 28 nM.

**Q.** What does the source list for Cc1ccccc1NC(=O)Oc1ccc2c(c1)[C@@]1(C)CO[C@H](C1)O2?
**A.** IC50 (Acetylcholinesterase): 38 nM; IC50 (Cholinesterase): 52000 nM

**Q.** For Cc1ccccc1NC(=O)Oc1ccc2c(c1)[C@@]1(C)CCO[C@H]1O2, which IC50 (Cholinesterase) is on record?
**A.** The IC50 was 36400 nM.

**Q.** With Cc1ccccc1NC(=O)Oc1ccc2c(c1)[C@@]1(C)CCO[C@H]1N2C as the molecule, how does the IC50 (Acetylcholinesterase) read?
**A.** The IC50 was 142 nM.

**Q.** What about the IC50 (Cholinesterase) of the same molecule?
**A.** Its IC50 is 5100 nM.

**Q.** With CCNC(=O)Oc1ccc2c(c1)[C@]1(C)CO[C@@H](C1)O2 as the molecule, how does the IC50 (Acetylcholinesterase) read?
**A.** The IC50 was 2420 nM.

**Q.** What about the IC50 (Cholinesterase) of the same molecule?
**A.** Its IC50 is 120 nM.

**Q.** Which IC50 (Cholinesterase) does the source give for Cc1ccccc1NC(=O)Oc1ccc2c(c1)[C@]1(C)CCO[C@@H]1O2 here?
**A.** The IC50 was 11400 nM.

**Q.** CC(C)c1ccc(NC(=O)Oc2ccc3c(c2)[C@@]2(C)CCO[C@H]2N3C)cc1 was tested. Which IC50 (Cholinesterase) did it give?
**A.** The IC50 was 23 nM.

**Q.** For CC(C)c1ccc(NC(=O)Oc2ccc3c(c2)[C@]2(C)CCO[C@@H]2N3C)cc1, which IC50 (Acetylcholinesterase) is on record?
**A.** Its IC50 is 3860 nM.

**Q.** And the IC50 (Cholinesterase)?
**A.** Its IC50 is 17 nM.

**Q.** What does the source list for CC(C)c1ccc(NC(=O)Oc2ccc3c(c2)[C@]2(C)CO[C@@H](C2)O3)cc1?
**A.** IC50 (Acetylcholinesterase): 3430 nM; IC50 (Cholinesterase): 54 nM

**Q.** With CC(C)c1ccc(NC(=O)Oc2ccc3c(c2)[C@]2(C)CCO[C@@H]2O3)cc1 as the molecule, how does the IC50 (Cholinesterase) read?
**A.** The IC50 was 13 nM.

**Q.** CC(C)c1ccc(NC(=O)Oc2ccc3c(c2)[C@@]2(C)CCO[C@H]2O3)cc1 was tested. Which IC50 (Cholinesterase) did it give?
**A.** The IC50 was 40 nM.
